Test results: PubChem BioAssay (NCI)
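Values below derive from 48-hour exposures of cells grown in 96-well plates, with endpoints linearly interpolated between the two concentrations bracketing the appropriate inhibition level. TGI marks complete inhibition of growth.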

Experiments:
Assay in all cases: growth of human tumour cells (NCI), 48 h
[1] = system: SNB-19 CNS
[2] = system: HT29 colon
[3] = system: SN12C renal
[4] = system: HOP-92 NSCLC
[5] = system: RXF 393 renal
[6] = system: UO-31 renal
[7] = system: MDA-MB-435
[8] = system: RPMI-8226 leukemia
[9] = system: PC-3 prostate
[10] = system: MDA-MB-231 breast
[11] = system: CCRF-CEM leukemia
[12] = system: SNB-75 CNS
[13] = system: NCI-H460 lung
[14] = system: SF-268 CNS
[15] = system: CAKI-1 renal
[16] = system: HS 578T breast
[17] = system: SK-OV-3 ovarian
[18] = system: SK-MEL-5 melanoma
[19] = system: DU-145 prostate
[20] = system: M14 melanoma
[21] = system: T-47D breast
[22] = system: MDA-N
[23] = system: MOLT-4 leukemia
[24] = system: NCI-H226 lung
[25] = system: TK-10 renal
[26] = system: SK-MEL-28 melanoma
[27] = system: OVCAR-4 ovarian
[28] = system: A549 NSCLC
[29] = system: SR leukemia
[30] = system: IGROV1 ovarian
[31] = system: HCC-2998 colon
[32] = system: U251 CNS
[33] = system: ACHN renal
[34] = system: 786-0 renal
[35] = system: EKVX NSCLC
[36] = system: HCT-116 colon
[37] = system: OVCAR-5 ovarian
[38] = system: K-562 leukemia
[39] = system: MCF7 breast
[40] = system: KM12 colon
[41] = system: MALME-3M melanoma
[42] = system: SF-539 CNS
[43] = system: OVCAR-3 ovarian
[44] = system: SK-MEL-2 melanoma
[45] = system: NCI/ADR-RES ovarian
[46] = system: HOP-62 NSCLC
[47] = system: HCT-15 colon
[48] = system: HL-60(TB) leukemia
[49] = system: COLO 205 colon
[50] = system: SW-620 colon
[51] = system: UACC-62 melanoma
[52] = system: OVCAR-8 ovarian
[53] = system: UACC-257 melanoma
[54] = system: LOX IMVI melanoma
[55] = system: NCI-H23 lung
[56] = system: SF-295 CNS
[57] = system: A498 renal
[58] = system: NCI-H522 lung

O=[N+]([O-])c1ccc2c(c1)N([O-])C1(CCCCC1)[N+]2=O
TGI [1]: > 100 µM
TGI [2]: 43.3 µM
TGI [3]: 35.1 µM
TGI [4]: 29.1 µM
TGI [5]: 32.4 µM
TGI [6]: 33.7 µM
TGI [7]: 30.9 µM
TGI [8]: 65 µM
TGI [9]: 31.2 µM
TGI [10]: 34.4 µM
TGI [11]: > 100 µM
TGI [12]: 33.2 µM
TGI [13]: 37 µM
TGI [14]: 69.4 µM
TGI [15]: 34.9 µM
TGI [16]: 47.9 µM
TGI [17]: 44.2 µM
TGI [18]: 28.9 µM
TGI [19]: 33.9 µM
TGI [20]: 30.5 µM
TGI [21]: 64.7 µM
TGI [22]: 31.8 µM
TGI [23]: 51.9 µM
TGI [24]: 37.4 µM
TGI [25]: 26.2 µM
TGI [26]: 34.5 µM
TGI [27]: 23.7 µM
TGI [28]: 37 µM
TGI [29]: 51.5 µM
TGI [30]: 36.9 µM
TGI [31]: 32.8 µM
TGI [32]: 32.3 µM
TGI [33]: 33.8 µM
TGI [34]: 24.6 µM
TGI [35]: 29.6 µM
TGI [36]: 33.3 µM
TGI [37]: 34.7 µM
TGI [38]: > 100 µM
TGI [39]: 36.6 µM
TGI [40]: 42.4 µM
TGI [41]: 28.7 µM
TGI [42]: 33.6 µM
TGI [43]: 51 µM
TGI [44]: 52.1 µM
TGI [45]: 77.7 µM
TGI [46]: 31 µM
TGI [47]: 39.4 µM
TGI [48]: > 100 µM
TGI [49]: 27.1 µM
TGI [50]: 56 µM
TGI [51]: 37.1 µM
TGI [52]: 42.6 µM
TGI [53]: 29.4 µM
TGI [54]: 42.2 µM
TGI [55]: 66.3 µM
TGI [56]: 34 µM

CCOC(=O)c1[nH]c(-c2[nH]c(-c3[nH]c(-c4[nH]c(C(=O)OCC)c(C)c4C(=O)OCC)c(C(=O)OCC)c3C)c(C)c2C(=O)OCC)c(C(=O)OCC)c1C
TGI [1]: > 100 µM
TGI [2]: > 100 µM
TGI [3]: > 100 µM
TGI [57]: > 100 µM
TGI [58]: > 100 µM
TGI [5]: > 100 µM
TGI [7]: > 100 µM
TGI [8]: > 100 µM
TGI [9]: > 100 µM
TGI [10]: > 100 µM
TGI [11]: > 100 µM
TGI [13]: > 100 µM
TGI [14]: > 100 µM
TGI [15]: > 100 µM
TGI [16]: > 100 µM
TGI [17]: > 100 µM
TGI [18]: > 100 µM
TGI [19]: > 100 µM
TGI [20]: > 100 µM
TGI [21]: > 100 µM
TGI [22]: > 100 µM
TGI [23]: > 100 µM
TGI [24]: > 100 µM
TGI [25]: > 100 µM
TGI [26]: > 100 µM
TGI [27]: > 100 µM
TGI [28]: > 100 µM
TGI [30]: > 100 µM
TGI [31]: > 100 µM
TGI [32]: > 100 µM
TGI [33]: > 100 µM
TGI [34]: > 100 µM
TGI [35]: > 100 µM
TGI [36]: > 100 µM
TGI [37]: > 100 µM
TGI [38]: > 100 µM
TGI [39]: > 100 µM
TGI [40]: > 100 µM
TGI [41]: > 100 µM
TGI [42]: > 100 µM
TGI [43]: > 100 µM
TGI [44]: > 100 µM
TGI [45]: > 100 µM
TGI [46]: > 100 µM
TGI [47]: > 100 µM
TGI [48]: > 100 µM
TGI [49]: > 100 µM
TGI [50]: > 100 µM
TGI [51]: > 100 µM
TGI [52]: > 100 µM
TGI [53]: > 100 µM
TGI [54]: > 100 µM
TGI [55]: > 100 µM
TGI [56]: > 100 µM
